# Measured values: patent publication US9371265B2, “Compositions and methods related to inhibitors of JAK kinase” (EP PHARMA, INC., priority 2012, dated 2016)
# Key:
# MEK2 = MEK2 (Homo sapiens, UniProt P36507); test: Kinase panel: MEK2; assay type: biochemical; settings: 10 μM EP009
# Experimental: (§1) Achieving JAK3 selectivity remains a significant challenge in the development of new small molecules for the treatment of cancer and immune-derived diseases. As such, the inventors employed cell-based screening assays of small-molecule libraries based upon the chemical scaffold of the established JAK3 inhibitor NC1153 (Stepkowski et al., J Immunol. (2005), 175(7):4236-4246) EP009 (FIG. 2A) was selected as a lead compound due to improved intrinsic stability (>95% purity in various solvents at 37° C. for 24 hours; FIG. 3) and high-degree of JAK3 selectivity. To test JAK3 versus JAK2 specificity of EP009, the IL-2/JAK3-dependent Kit225, and IL-3/JAK2-dependent BaF/3 cell lines were used. Kit225 and BaF/3 cells growing in the presence of IL-2 or IL-3, respectively, were treated with ascending concentrations of EP009 for 12 hours and cellular JAK3 and JAK2 tyrosine phosphorylation levels detected by Western blot analysis (FIGS. 2B and 2C). Following densitometric analysis, EP009 was determined to dose-dependently reduce IL-2-mediated JAK3 tyrosine phosphorylation with a cellular 50% inhibitory concentration (IC50) between 10 and 20 μM (FIG. 2B). […] To globally evaluate specificity, the inhibitory activity of EP009 was measured against a panel of protein kinases distributed throughout the kinome using the scanEDGE profiling service (KINOMEscan). […]
# PLK1 = PLK1 (Homo sapiens, UniProt P53350); test: Kinase panel: PLK1; assay type: biochemical; settings: 10 μM EP009
# Experimental: as §1
# STAT3 = test: Phospho-STAT3 in SU-DHL-1 cells (Luminex multiplex); assay type: cell-based, human; settings: 0-40 μM, 12 hours
# Excerpt: FIGS. 6A-6B. EP009 treatment disrupts constitutive JAK3/STAT3 pathway activation and down-regulates CD30 cell surface expression in human ALCL cells. (A) Kit225 (lane a), SUP-M2 (lane b), Karpas299 (lane c), DEL (lane d) and SU-DHL-1 (lane e) total cell lysates were separated by 7.5% SDS-PAGE (upper panel) or were immunoprecipitated (IP) with JAK3 antibodies (lower panel) and separated on 7.5% SDS-PAGE, and then subjected to Western blot (WB) analysis with the indicated antibodies. (B) SU-DHL-1 cells were treated with vehicle (PBS; lane a) or increasing amounts of EP009 (0-40 μM; lanes b-e) for 12 hours. Cells were then lysed, clarified, and immunoprecipitated (IP) with anti-JAK3 (α-JAK3), and subjected to Western blot (WB) analysis with anti-phosphotyrosine (α-pY). Blots were stripped and reprobed with α-JAK3 to verify equivalent protein loading. (C) SU-DHL-1 cells were treated with vehicle (PBS) or increasing amounts of EP009 (0-40 μM) for 12 hours. […] Values represent pSTAT mean fluorescence intensity (MFI) normalized to corresponding GAPDH MFI, while error bars represent the standard deviation (n=2). Statistical significance was determined using Student's t-test. […] Cells were then analyzed by flow cytometry for CD30 expression. […]
# LKB1 = LKB1 (Homo sapiens, UniProt Q15831); test: Kinase panel: LKB1; assay type: biochemical; settings: 10 μM EP009
# Experimental: as §1
# SUP-M2 cells = test: SUP-M2 cell viability (MTS); assay type: cell-based; settings: Homo sapiens; SUP-M2, 72 hours
# Experimental: FIGS. 7A-7C. EP009 reduces ALCL cell viability through induction of caspase 3 mediated apoptosis. (A) SUP-M2, SU-DHL-1 or H2228 cells were cultured with increasing amounts of EP009 (0-10 μM) for 72 hours and cell viability measured with the MTS tetrazolium salt assay. Values represent mean absorbance (OD490-OD650 nm) normalized to vehicle (PBS) treated control cells, while error bars represent the standard deviation (n=3). (B) SU-DHL-1 cells were treated with vehicle (PBS) or increasing amounts of EP009 (0-50 μM) for 24 hours. Cells were then lysed, clarified, and subjected to Luminex multiplex analysis to detect activated caspase 3 and (C) cleaved PARP. Values represent MFI normalized to corresponding GAPDH MFI, while error bars represent the standard deviation (n=2). Representative data from three independent experiments are shown. Statistical significance was determined using Student's t-test. (*, p<0.05).
# Cell viability was assessed with 3-(4,5-dimethylthiazol-2-yl)-5-(3-carboxymethoxyphenyl)-2-(4-sulfophenyl)-2H-tetrazolium salt (MTS) reagent (Promega) in triplicates according to the manufacturer's instructions. Three independent experiments were performed. The error bars represent standard deviation.
# MEK2, sequence (P36507 whole entry): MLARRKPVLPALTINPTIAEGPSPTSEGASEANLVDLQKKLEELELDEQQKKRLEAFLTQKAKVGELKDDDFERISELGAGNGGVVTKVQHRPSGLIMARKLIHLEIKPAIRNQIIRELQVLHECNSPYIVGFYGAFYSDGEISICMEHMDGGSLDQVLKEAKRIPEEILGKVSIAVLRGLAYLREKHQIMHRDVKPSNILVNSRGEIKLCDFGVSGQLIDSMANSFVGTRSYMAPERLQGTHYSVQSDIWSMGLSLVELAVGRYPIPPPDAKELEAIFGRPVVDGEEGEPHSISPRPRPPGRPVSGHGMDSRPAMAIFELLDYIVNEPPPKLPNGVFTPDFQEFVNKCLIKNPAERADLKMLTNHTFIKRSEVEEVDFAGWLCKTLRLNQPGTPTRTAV
# PLK1, sequence (P53350 whole entry): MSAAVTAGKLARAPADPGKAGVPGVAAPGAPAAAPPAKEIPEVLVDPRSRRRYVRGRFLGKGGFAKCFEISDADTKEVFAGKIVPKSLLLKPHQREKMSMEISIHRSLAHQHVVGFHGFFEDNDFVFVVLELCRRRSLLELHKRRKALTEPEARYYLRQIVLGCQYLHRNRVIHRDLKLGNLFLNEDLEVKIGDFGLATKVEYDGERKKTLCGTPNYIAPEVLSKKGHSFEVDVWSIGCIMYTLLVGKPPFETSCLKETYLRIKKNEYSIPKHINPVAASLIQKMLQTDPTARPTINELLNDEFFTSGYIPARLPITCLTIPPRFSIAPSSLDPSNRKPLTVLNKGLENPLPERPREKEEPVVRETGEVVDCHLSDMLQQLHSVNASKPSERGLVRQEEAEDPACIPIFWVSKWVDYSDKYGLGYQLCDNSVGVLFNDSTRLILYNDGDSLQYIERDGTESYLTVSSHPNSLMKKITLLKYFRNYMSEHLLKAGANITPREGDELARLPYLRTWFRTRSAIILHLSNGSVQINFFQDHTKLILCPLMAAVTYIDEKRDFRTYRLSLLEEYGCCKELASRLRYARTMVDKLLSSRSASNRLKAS
# LKB1, sequence (Q15831 whole entry): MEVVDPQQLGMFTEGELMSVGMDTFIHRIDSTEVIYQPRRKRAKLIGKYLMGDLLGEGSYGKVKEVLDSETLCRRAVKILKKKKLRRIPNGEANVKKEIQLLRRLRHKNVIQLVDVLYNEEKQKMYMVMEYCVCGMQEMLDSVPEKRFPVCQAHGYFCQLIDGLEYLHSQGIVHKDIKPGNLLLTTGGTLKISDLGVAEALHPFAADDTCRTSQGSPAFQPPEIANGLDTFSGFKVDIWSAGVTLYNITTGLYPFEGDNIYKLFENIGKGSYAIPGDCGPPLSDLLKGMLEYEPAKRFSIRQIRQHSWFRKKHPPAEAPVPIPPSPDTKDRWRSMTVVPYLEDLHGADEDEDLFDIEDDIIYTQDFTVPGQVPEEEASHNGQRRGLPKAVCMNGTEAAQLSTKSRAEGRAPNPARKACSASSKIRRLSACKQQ
structure (smiles),measurement,setting,value
"C=C1CCCCCCCCCC(CO)C1=O (centres unmarked) [EP009, 2-(Hydroxymethyl)-12-methylenecyclododecanone]",Kinase Activity (% of Control),MEK2,84 % of Control
same,Kinase Activity (% of Control),PLK1,100 % of Control
same,effect on phospho-STAT3 levels,STAT3,dose-dependent inhibition
same,Kinase Activity (% of Control),LKB1,100 % of Control
same,IC50,SUP-M2 cells,5 µM
